Reference: patent publication US20100292200A1, “Methods for Modulating Apoptosis in Platelets” (The Walter and Eliza Hall Institute of Medical Research, priority 2006, published 2010)
“Also recorded” adds a separate entry of the source.

Assays:
human platelets = settings: 1 μM for 1 or 2 h
Procedure: Human whole blood was obtained with informed consent (approved by the Institutional Review Board), Platelet rich plasma was obtained and incubated at room temperature with drug or control for up to 2 h. Platelets were counted manually in triplicate using a hemacytometer.

mouse platelets = test: Ex vivo platelet assays, mouse platelets in culture (platelet counts, caspase immunoblotting); format: cell-based; settings: ABT-737 1 μM
Procedure: (A) Expression of Bcl-2 family proteins in platelets. […] (C) ABT-737 triggers caspase activation in platelets. […] (F) Absence of Bak protects platelets against ABT-737.
Cell death was induced with ABT-737 (up to 5 μM, Abbott Laboratories (Oltersdorf et al., 2005 (supra)), etoposide (up to 100 μM, Pharmacia) or staurosporine (10 μM, Sigma); 50 μM qVD.OPh (Enzyme Systems) was also added in some experiments. Cell viability was determined by flow cytometry for cells that exclude propidium iodide or manual counting using a hemacytometer.
Other antibodies for immunoblotting were mouse monoclonal anti-Bcl-xL (2H12; BD), anti-Bcl-2 (clone 7; BD), anti-human Bcl-2 (Bcl-2-100), anti-actin (AC40; Sigma), anti-Bax (2D2 and 5B7; Sigma), anti-Mcl-1 (clone 22: BD); rat monoclonal anti-Mcl-1 (14C11; D Huang, unpublished), rabbit polyclonal anti-Bak (B5897: Sigma), anti-Mcl-1 (Rockland), anti-caspase-3 (585; gift of Y. Lazebnik), anti-cleaved p17 fragment of caspase-3 (AB3623; Chemicon), anti-gelsolin (gift of D Kwiatkowski) (Kothakota et al., Science, 278:294-298, 1997); hamster monoclonal anti-mouse Bcl-2 (3F11; BD). Secondary antibodies included HRP-conjugated anti-rat or anti-hamster IgG (SouthernBiotech), anti-mouse or anti-rabbit IgG (Chemicon), and anti-mouse IgG Fcγ chain specific antibody (Jackson ImmunoResearch). The proteins were detected using Enhanced ChemiLuminescence (ECL; GE Healthcare).
Platelets were counted manually in triplicate using a hemacytometer.

[1] = tested on: Bcl-2, Bcl-xL, Bcl-w, Mcl-1, A1; settings: Oltersdorf et al., 2005; van Delft et al., 2006; cited from earlier work
platelets = test: ABT-737 administration to mice, peripheral blood platelet counts; format: in vivo, mouse
Procedure: Animals were bled 2-24 h afterwards and platelet counts determined. […] Platelet counts (blue symbols; left axis) were determined 2-96 h after a single dose of ABT-737 (red arrow). […] Orange symbols represent serum TPO levels (right axis). […] Platelet counts were determined before and 8 h after a single dose of ABT-737 (red arrows) given at weekly intervals. […] (E) Synchronizing platelets. […] Wild type C57BL/6 mice were treated with APS, and then injected with ABT-737 (red arrows) either 2 or 7 days afterwards. Absolute platelet counts and the % of reticulated platelets were measured. The top panels show representative flow cytometric profiles following thiazole orange staining before or after ABT-737 injections. The bottom panels show platelet counts prior to or 2 h post ABT-737 injection. Data in (B), (C), (E) and (F) represent means±SD of 3-6 mice at each time point. […]
(§1) The hematocrit, platelet and white cell count, and differential were determined by using either manual or automated (Advia 120) counting techniques. In most experiments, with the exception of data shown in FIGS. 1A and 6E, the data was collected from male mice. Clonal cultures of 2.5×10^4 adult bone marrow cells or 5×10^4 spleen cells in 1 mL of 0.3% agar in DMEM supplemented with newborn calf serum (20%) were stimulated with a mixture of 100 ng/mL murine stem cell factor, 10 ng/mL murine IL-3, 4 units/mL human EPO and incubated for 7 days at 37° C. in a fully humidified atmosphere of 10% CO2 in air. Agar cultures were fixed, sequentially stained for acetylcholinesterase, Luxol fast blue and hematoxylin; the cellular composition of each colony determined at ×100-400 magnification. Megakaryocyte counts were performed by manual counting from sections of sternum and spleen after staining with hematoxylin/eosin. A minimum of 10 high-power fields (×200) were scored.
Mice were injected intra-peritoneally with 75 mg/kg of ABT-737 given as a single dose or daily. A stock solution of ABT-737 (1 g/mL in DMSO) was diluted in a mixture of 30% propylene glycol, 5% Tween 80, 65% D5W (5% dextrose in water), pH 4-5; the final concentration of DMSO was less than 1%.

megakaryocytes = settings: mouse, in vivo
Procedure: as §1

[2] = tested on: cells from the bone marrow of C57BL/6 mice; test: formation of hematopoietic progenitors in vitro (soft agar colony cultures); format: cell-based, mouse
Procedure: Cells (25,000) from the bone marrow of C57BL/6 mice were cultured in soft agar with G-CSF, IL-3 and EPO for 7 r d, stained and counted. Saline or ABT-737 was added on days 1, 3 and 5. […] G, granulocyte colony; GM, granulocyte/macrophage colony; M, macrophage colony; EO, eosinophil colony; Meg, megakaryocyte colony. Total colony counts are the means of two cultures; megakaryocyte colony counts represent the means±SD of four indepdendent cultures.
as §1

[3] = ABT-737 1 μM added on days 1, 3 and 5, 25,000 bone marrow cells, 7 d, mean of two cultures
[4] = progenitor cell cultures in vitro

## CN(C)CC[C@H](CSc1ccccc1)Nc1ccc(S(=O)(=O)NC(=O)c2ccc(N3CCN(Cc4ccccc4-c4ccc(Cl)cc4)CC3)cc2)cc1[N+](=O)[O-] [ABT-737]
Human platelets
  susceptibility of human platelets to ABT-737: caspase-dependent susceptibility
Mouse platelets; counted after 1 h
  loss of wild type platelets in culture: Bak-mediated caspase-dependent loss of platelets
Mouse platelets; immunoblotting
  caspase-3 activation and gelsolin cleavage in cultured platelets: triggered cleavage and full activation of caspase-3 as well as cleavage of gelsolin; also recorded: induced complete caspase-3 activation and gelsolin cleavage
Mouse platelets; Bak^-/- vs wild type platelets, 1 h
  action of ABT-737 on viability of Bak^-/- platelets in culture: markedly blunted
[1]
  selectivity among pro-survival Bcl-2 family proteins: selectively targets Bcl-2, Bcl-xL and Bcl-w but not the other pro-survival proteins Mcl-1 or A1
platelets; ABT-737 injected 2 days post-APS, counts 2 h post injection
  effect of ABT-737 on newly synthesized young platelets: highly resistant
platelets; ABT-737 injected 7 days post APS, counts 2 h post injection
  effect of ABT-737 on aged platelets: susceptible
platelets; Bak^-/- Bax^+/- mice, single dose 75 mg/kg, 0-24 h, 75 mg/kg
  effect of ABT-737 on platelets in Bak^-/- Bax^+/- mice: entirely refractory; also recorded: enthely refractory; also recorded: completely protected
platelets; Bak^-/- mice, single dose 75 mg/kg, 0-24 h, 75 mg/kg
  effect of ABT-737 on platelet counts in Bak^-/- mice: significantly buffered; also recorded: unaffected by ABT-737 at early time points (up to 4 h)
platelets; Bax-deficient mice (data not shown)
  impact of loss of Bax alone on the effect of ABT-737: little impact
platelets; Bcl-x^+/- vs wild type and Bcl-2^+/- mice, single dose 75 mg/kg, 2-24 h, 75 mg/kg
  ABT-737-induced thrombocytopaenia in Bcl-x^+/- mice: exacerbates
platelets; daily injections continued for 14 days
  platelet levels during continued daily ABT-737: 60-70 % of normal
platelets; single dose given at weekly intervals, counts before and 8 h after
  platelet counts with weekly ABT-737: acute thrombocytopaenia ensued in a cyclical manner; also recorded: comparable drop in platelets each time
platelets; wild type C57BL/6 mice (data not shown)
  dose dependence of thrombocytopaenia: dose dependent
platelets; wild type C57BL/6 mice, 2-96 h after a single dose
  platelet counts after recovery from a single dose: rebound thrombocytosis by day 4
platelets; wild type C57BL/6 mice, after a single dose
  time for platelet counts to recover to normal levels: ≤ 3 days
megakaryocytes
  megakaryocytopoiesis in ABT-737 treated mice: normal, or probably even elevated
[2]; [3]
  Blast colonies: 16
  Eo, eosinophil colony: 1
  G, granulocyte colony: 14
  GM, granulocyte/macrophage colony: 6
  M, macrophage colony: 14
[2]; ABT-737 1 μM added on days 1, 3 and 5, 25,000 bone marrow cells, 7 d, means±SD of four independent cultures
  Meg, megakaryocyte colony: 14 ± 6
[2]; [4]
  effect on formation of other colonies: unaffected
  effect on megakaryocyte colony formation: no effect; also recorded: minor effect
